Values quoted from earlier work as cited in patent US8951752B2, “N-demethyase genes and uses thereof” (priority 2011, dated 2015).

Target: T1, Caffeine dehydrogenase (Cdh) from CBB1 (Pseudomonas sp., UniProt D7REY3)
T1 sequence (D7REY3 1-791): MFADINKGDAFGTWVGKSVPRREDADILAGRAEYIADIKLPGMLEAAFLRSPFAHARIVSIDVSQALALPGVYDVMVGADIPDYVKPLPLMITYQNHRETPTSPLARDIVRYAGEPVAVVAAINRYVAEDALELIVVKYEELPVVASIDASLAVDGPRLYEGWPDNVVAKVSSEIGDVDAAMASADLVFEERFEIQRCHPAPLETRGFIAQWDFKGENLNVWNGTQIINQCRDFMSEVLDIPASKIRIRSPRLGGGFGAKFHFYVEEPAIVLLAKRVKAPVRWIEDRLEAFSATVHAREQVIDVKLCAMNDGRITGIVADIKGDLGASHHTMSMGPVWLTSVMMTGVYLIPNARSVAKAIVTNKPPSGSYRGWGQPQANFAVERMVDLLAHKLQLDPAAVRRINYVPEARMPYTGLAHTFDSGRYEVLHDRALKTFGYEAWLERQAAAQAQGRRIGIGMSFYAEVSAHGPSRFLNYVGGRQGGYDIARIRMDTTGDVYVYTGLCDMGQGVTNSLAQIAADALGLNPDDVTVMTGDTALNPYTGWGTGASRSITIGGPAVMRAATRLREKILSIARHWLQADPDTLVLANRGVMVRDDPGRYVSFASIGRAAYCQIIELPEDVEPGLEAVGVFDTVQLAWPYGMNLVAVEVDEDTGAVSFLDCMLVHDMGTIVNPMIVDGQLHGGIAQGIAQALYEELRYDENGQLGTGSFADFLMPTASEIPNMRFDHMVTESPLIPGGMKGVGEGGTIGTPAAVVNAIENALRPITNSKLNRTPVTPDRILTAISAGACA
T1 sequence (D7REY4 1-295 partner): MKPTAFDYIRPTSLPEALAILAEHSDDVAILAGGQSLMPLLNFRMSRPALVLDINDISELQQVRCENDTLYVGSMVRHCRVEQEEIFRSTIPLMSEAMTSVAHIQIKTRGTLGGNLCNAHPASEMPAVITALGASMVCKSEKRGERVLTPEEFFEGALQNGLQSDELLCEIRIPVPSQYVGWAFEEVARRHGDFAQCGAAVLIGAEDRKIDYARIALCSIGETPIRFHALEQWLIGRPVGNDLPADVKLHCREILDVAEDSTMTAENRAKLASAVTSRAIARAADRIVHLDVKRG
T1 sequence (D7REY5 1-167 partner): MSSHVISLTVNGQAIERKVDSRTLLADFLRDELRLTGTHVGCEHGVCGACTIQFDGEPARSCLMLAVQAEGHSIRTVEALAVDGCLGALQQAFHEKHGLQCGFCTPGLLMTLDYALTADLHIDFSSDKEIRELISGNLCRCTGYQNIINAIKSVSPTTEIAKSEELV
Conditions: cited from earlier work

SMILES: Cn1cnc2c1c(=O)[nH]c(=O)n2C [Theobromine, 3,7-dimethylxanthine]
- preference as a substrate, times less than caffeine: 50 times
